{"source": "patent US12390448B2", "about": "“Prevention or of disease states due to metal dis-homeostasis via administration of posiphen to healthy or sick humans” (ANNOVIS BIO, INC., priority 2017, dated 2025)", "key": {"[1]": {"molecular_target": "T1, IRP1/H-Ferritin RNA complex (Homo sapiens, UniProt P21399)", "T1 sequence (P21399 1-889)": "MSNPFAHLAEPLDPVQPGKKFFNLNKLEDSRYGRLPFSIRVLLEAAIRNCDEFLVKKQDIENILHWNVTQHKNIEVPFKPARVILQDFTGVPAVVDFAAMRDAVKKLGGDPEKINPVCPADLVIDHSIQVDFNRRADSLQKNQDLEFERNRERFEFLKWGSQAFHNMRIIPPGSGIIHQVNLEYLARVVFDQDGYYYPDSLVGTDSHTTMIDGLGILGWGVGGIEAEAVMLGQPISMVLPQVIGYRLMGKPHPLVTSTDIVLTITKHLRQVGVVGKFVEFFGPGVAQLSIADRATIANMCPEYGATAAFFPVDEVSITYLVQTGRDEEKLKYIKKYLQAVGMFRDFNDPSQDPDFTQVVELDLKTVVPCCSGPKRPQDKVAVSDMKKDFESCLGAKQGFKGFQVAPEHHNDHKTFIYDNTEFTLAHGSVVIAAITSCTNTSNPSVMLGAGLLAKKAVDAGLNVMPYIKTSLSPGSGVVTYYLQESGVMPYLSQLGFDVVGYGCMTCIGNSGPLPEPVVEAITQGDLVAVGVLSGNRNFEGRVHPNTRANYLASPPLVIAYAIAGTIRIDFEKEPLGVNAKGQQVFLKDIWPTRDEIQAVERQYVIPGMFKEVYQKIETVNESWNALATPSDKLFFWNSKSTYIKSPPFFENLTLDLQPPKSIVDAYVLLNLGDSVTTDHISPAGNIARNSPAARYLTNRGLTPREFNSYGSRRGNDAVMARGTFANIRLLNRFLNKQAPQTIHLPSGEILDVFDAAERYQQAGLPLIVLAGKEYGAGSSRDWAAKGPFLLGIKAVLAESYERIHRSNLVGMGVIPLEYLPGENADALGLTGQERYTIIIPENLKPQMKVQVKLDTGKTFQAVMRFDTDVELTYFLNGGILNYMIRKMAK", "assay": "MST binding of Posiphen to IRP1/H-Ferritin RNA complex", "details": "IRP1/H-Ferritin 2, 250 nM; Posiphen tartrate", "protocol": "(§1) Microscale thermophoresis (MST) binding experiments were done to assess binding in vitro between the different components. MST binding experiments were performed by incubating N-termini labeled protein (2 nM) with serial 2-fold dilutions of IRE RNAs, H-Ferritin ([…]) or APP ([…]) for 10 min in incubation buffer (Tris pH 7.4, 0.5%, 15 mM NaCl and 0.1% Prionex). IPR-1 was N-termini labeled with RED-NHS amino reactive labeling kit (NanoTemper Technologies, Germany). For determination of Posiphen binding, reactions containing IPR1 (2 nM), IRP1/H-Ferritin (2, 250 nM), or IRP1/APP (2, 600 nM) were incubated for 10 min with 2-fold dilutions of Posiphen tartrate. After incubation, samples were centrifuged at 13,000 rpm for 2 minutes before being loaded into standard capillaries provided by the manufacturer. Fluorescence values from the binding reactions were determined using the Monolith NT.115 (Nano Temper Technologies). Kd values were using the NanoTemper Technologies software. Conditions were standardized."}, "IRP1/APP RNA complex": {"molecular_target": "T2, IRP1/APP RNA complex (Homo sapiens, UniProt P21399)", "T2 sequence (P21399 1-889)": "T1 sequence (P21399 1-889)", "assay": "MST binding of Posiphen to IRP1/APP RNA complex", "details": "IRP1/APP 2, 600 nM; Posiphen tartrate; read-out: Kd, binding of Posiphen to APP IRE/IRP1 complex", "protocol": "as §1"}, "aSYN": {"test_system": "aSYN", "assay": "aSYN in enteric nervous system of transgenic PD mice", "format": "in vivo", "details": "PAC-Tg(SNCAA53T) mice, 21 weeks", "protocol": "In Example 6, the effect of Posiphen on mice homozygous for the PAC-Tg(SNCAA53T) transgene was tested over the course of 21 weeks."}, "retinal neurons": {"test_system": "retinal neurons", "assay": "Acute glaucoma in rats, retinal cell death", "format": "in vivo", "details": "acute glaucoma by raised intraocular pressure", "excerpt": "When acute glaucoma is induced by increasing the pressure in an eye, the retina gets destroyed. In Example 10, acute glaucoma was induced in rats by increasing intraocular pressure by micro-injection of saline into the anterior chamber. This induces large amounts of apoptotic cell death in the retina. There are twice as many dead cells in high pressure retinas of rats treated with vehicle versus control untreated rats. Posiphen rescued 72% of the retinal neurons. The results are depicted in FIG. 23. Administration of Posiphen to those rats preserves the retina and protects the retinal cells from dying."}, "[2]": {"test_system": "neurotoxic aggregating proteins", "assay": "Translation of neurotoxic aggregating proteins in healthy mouse brain", "format": "in vivo", "excerpt": "Therefore, the original data concerning the effects of Posiphen working under all conditions is wrong. It only works in stressed cells, dividing cells and sick cells, e.g., those cells that have high levels of iron."}, "[3]": {"details": "cited from earlier work"}, "SNCA": {"test_system": "SNCA", "details": "cited from earlier work"}, "IRP1": {"molecular_target": "T3, IRP1 (Homo sapiens, UniProt P21399)", "T3 sequence (P21399 1-889)": "T1 sequence (P21399 1-889)", "assay": "Microscale thermophoresis (MST) binding of IRE RNAs to IRP1", "details": "cell free, labeled IRP1 2 nM, without Posiphen; read-out: Kd of IRE RNA binding to IRP1", "protocol": "as §1"}}, "note": "Values joined by “and” are separate entries in the source; they are usually repeats but may differ in a detail not shown here. Equal values may be shown once.", "data": [{"molecule": "CN1CC[C@]2(C)c3cc(OC(=O)Nc4ccccc4)ccc3N(C)C12", "note": "(stereo partly drawn) [Posiphen, (3aR)-1,3a,8-trimethyl-1,2,3,3a,8,8a-hexahydropyrrolo[2,3-b]indol-5-ylphenylcarbamate]", "values": [{"measurement": "binding of Posiphen to the IRP1/H-Ferritin RNA complex", "setting": "[1]", "result": "no binding"}, {"measurement": "Kd", "setting": "IRP1/APP RNA complex", "result": "3.2 nM and 3.22 nM"}, {"measurement": "inhibition of aSYN in enteric nerves", "setting": "aSYN", "result": "about 40%"}, {"measurement": "retinal neurons rescued", "setting": "retinal neurons", "result": 72, "unit": "%"}, {"measurement": "translation of neurotoxic aggregating proteins", "setting": "[2]", "result": "does not inhibit"}, {"measurement": "tolerability", "setting": "[3]; doses up to 4×60 mg daily×10 days, humans", "result": "well tolerated"}, {"measurement": "terminal half-life in plasma", "setting": "[3]; human, all doses", "result": "4.3 to 4.7", "unit": "h"}]}, {"molecule": "C[C@]12CC[C@H]3[C@@H](CC[C@]4(O)C[C@@H](O)CC[C@]34C=O)[C@@]1(O)CC[C@@H]2C1=CC(=O)OC1", "note": "[strophanthidine]", "values": [{"measurement": "SNCA expression in neural cells, Western blotting", "setting": "SNCA", "result": "selectively blocked"}]}, {"molecule": "APP: APP IRE RNA oligo GGUGGCGGCGCGGGCAGAGCAAGGACGCGGCGGAU (RNA, backbone not given here)", "values": [{"measurement": "Kd", "setting": "IRP1", "result": 225, "unit": "nM"}]}, {"molecule": "H-Ferritin: H-Ferritin IRE RNA oligo GGGGUUUCCUGCUUCAACAGUGCUUGGACGGAACC (RNA, backbone not given here)", "values": [{"measurement": "Kd", "setting": "IRP1", "result": 88.5, "unit": "nM"}]}]}
